Measured values as given in patent EP3409761B1, “CULTURE MEDIUM COMPOSITION, AND METHOD FOR CULTURING CELL OR TISSUE USING SAID COMPOSITION” (Nissan Chemical Corporation, priority 2012, dated 2014).

Tests used:
Assay type in all cases: cell-based
[1] = tested on: human squamous carcinoma cell line A431; test: Effect of Gefitinib, Elrotinib on proliferation of A431 cells stimulated with human HB-EGF; conditions: DAG 0.015%
Protocol: (§1) Each plate was cultured by being stood still in a CO2 incubator (37°C, 5% CO2). […] To the culture medium on days 4, 6 and 8 was added an ATP reagent (150 µL) (CellTiter-Glo (registered trade mark) Luminescent Cell Viability Assay, manufactured by Promega) to give a suspension, which was stood for about 10 min at room temperature, and the luminescence intensity (RLU value) was measured by FlexStation3 (manufactured by Molecular Devices), and the number of viable cells was measured by subtracting the luminescence value of the medium alone.

[2] = tested on: human lung cancer cell line A549; test: Effect of Gefitinib on proliferation of A549 cell stimulated with human HB-EGF; conditions: DAG 0.015%, day 6
Protocol: as §1, with “This aqueous solution was sterilized at 121°C for 20 min in an autoclave. […] Each” for “Each”, “day” for “days 4,”, “6” for “6 and 8”

[3] = tested on: human cervical cancer cell line HeLa; test: Cell proliferation test using various anticancer drugs; conditions: DAG 0.030% medium; for cell density: 5 days later
Protocol: This aqueous solution was sterilized at 121°C for 20 min in an autoclave. […] The anticancer drug used was Adriamycin (manufactured by WAKO), Paclitaxel (manufactured by WAKO) or Mitomycin C (manufactured by WAKO).
Successively, this plate was cultured by being stood still in a CO2 incubator (37°C, 5% CO2) for 7 days. After culturing for 3, 5, 7 days, to the culture medium was added a WST-8 solution (manufactured by DOJINDO Laboratories, 20 µL), and the mixture was incubated at 37°C for 100 min. The absorbance at 450 nm was measured by an absorbance spectrometer (manufactured by Molecular Devices, SPECTRA MAX 190), and the number of viable cells was measured by subtracting the absorbance of the medium alone. The culture medium containing the cells after 5 days of culture was stirred with a pipette and the obtained stirred solution (20 µL) was mixed with Trypan Blue stain 0.4% (manufactured by Invitrogen, 20 µL) and the cell density was measured under a microscope.

[4] = tested on: human cervical cancer cell line HeLa; test: Comparison with single layer culture method in cell proliferation test using anticancer drug; conditions: day 4
Protocol: This aqueous solution was sterilized at 121°C for 20 min in an autoclave. […] Each plate was cultured by being stood still in a CO2 incubator (37°C, 5% CO2). […] The anticancer drug used was Adriamycin (manufactured by WAKO), Paclitaxel (manufactured by WAKO) or Mitomycin C (manufactured by WAKO). To the culture medium on day 4 was added an ATP reagent (150 µL) (CellTiter-Glo (registered trade mark) Luminescent Cell Viability Assay, manufactured by Promega) to give a suspension, which was stood for about 10 min at room temperature, and the luminescence intensity (RLU value) was measured by FlexStation3 (manufactured by Molecular Devices), and the number of viable cells was measured by subtracting the luminescence value of the medium alone. For WST-8 measurement, a WST-8 solution (manufactured by DOJINDO Laboratories, 15 µL) was added, the mixture was incubated at 37°C for 100 min, the absorbance at 450 nm was measured by an absorbance spectrometer (manufactured by Molecular Devices, SPECTRA MAX 190), and the number of viable cells was measured by subtracting the absorbance of the medium alone.

[5] = tested on: human cervical cancer cell line HeLa; test: HeLa cell proliferation test using Trametinib and MK-2206; conditions: day 4 of the static culture
Protocol: (§2) This aqueous solution was sterilized at 121°C for 20 min in an autoclave. […] Each plate was cultured by being stood still in a CO2 incubator (37°C, 5% CO2). […] The anticancer drugs used were Trametinib (manufactured by Santa Cruz, MEK inhibitor) and MK-2206 (manufactured by Santa Cruz, Akt inhibitor). […]

[6] = tested on: human lung cancer cell line A549; test: A549 cell proliferation test using Trametinib and MK-2206; conditions: day 4 of the static culture
Protocol: as §2

[7] = drug 0.001 µM, deacylated gellan gum addition group (0.015%)
[8] = drug 0.001 µM, single layer culture group
[9] = drug 0.003 µM, deacylated gellan gum addition group (0.015%)
[10] = drug 0.003 µM, single layer culture group
[11] = drug 0.01 µM, deacylated gellan gum addition group (0.015%)
[12] = drug 0.01 µM, single layer culture group
[13] = drug 0.03 µM, deacylated gellan gum addition group (0.015%)
[14] = drug 0.03 µM, single layer culture group

C#Cc1cccc(Nc2ncnc3cc(OCCOC)c(OCCOC)cc23)c1 [Elrotinib]
% Control value of the RLU value (ATP measurement) ([1]; drug 0.1 µM, day 4): 88 % Control | % Control value of the RLU value (ATP measurement) ([1]; drug 0.1 µM, day 8): 56 % Control | % Control value of the RLU value (ATP measurement) ([1]; drug 0.3 µM, day 4): 89 % Control | % Control value of the RLU value (ATP measurement) ([1]; drug 0.3 µM, day 8): 27 % Control | % Control value of the RLU value (ATP measurement) ([1]; drug 1 µM, day 4): 21 % Control | % Control value of the RLU value (ATP measurement) ([1]; drug 1 µM, day 8): 4 % Control | % Control value of the RLU value (ATP measurement) ([1]; drug 3 µM, day 4): 4 % Control | % Control value of the RLU value (ATP measurement) ([1]; drug 3 µM, day 8): 0 % Control

COc1cc2ncnc(Nc3ccc(F)c(Cl)c3)c2cc1OCCCN1CCOCC1 [Gefitinib]
% Control value of the RLU value (ATP measurement) ([2]; 0.1 µM, HB-EGF 100 ng/ml): 91 % Control | % Control value of the RLU value (ATP measurement) ([2]; 0.1 µM, HB-EGF no addition): 89 % Control | % Control value of the RLU value (ATP measurement) ([2]; 0.3 µM, HB-EGF 100 ng/ml): 74 % Control | % Control value of the RLU value (ATP measurement) ([2]; 0.3 µM, HB-EGF no addition): 84 % Control | % Control value of the RLU value (ATP measurement) ([2]; 1 µM, HB-EGF 100 ng/ml): 59 % Control | % Control value of the RLU value (ATP measurement) ([2]; 1 µM, HB-EGF no addition): 77 % Control | % Control value of the RLU value (ATP measurement) ([2]; 3 µM, HB-EGF 100 ng/ml): 53 % Control | % Control value of the RLU value (ATP measurement) ([2]; 3 µM, HB-EGF no addition): 69 % Control

CC(=O)O[C@H]1C(=O)[C@@]2(C)[C@H]([C@H](OC(=O)c3ccccc3)[C@]3(O)C[C@H](OC(=O)[C@H](O)[C@@H](NC(=O)c4ccccc4)c4ccccc4)C(C)=C1C3(C)C)[C@]1(OC(C)=O)CO[C@@H]1C[C@@H]2O [Paclitaxel]
cell density ([3]; drug 0.001 µM): 5.3 10^4 cells/mL | cell number (absorbance at 450 nm, WST-8) ([3]; drug 0.001 µM, day 3): 0.276 | cell number (absorbance at 450 nm, WST-8) ([3]; drug 0.001 µM, day 5): 0.223 | cell number (absorbance at 450 nm, WST-8) ([3]; drug 0.001 µM, day 7): 0.222 | cell density ([3]; drug 0.01 µM): 1.6 10^4 cells/mL | cell number (absorbance at 450 nm, WST-8) ([3]; drug 0.01 µM, day 3): 0.019 | cell number (absorbance at 450 nm, WST-8) ([3]; drug 0.01 µM, day 5): < 0 | cell number (absorbance at 450 nm, WST-8) ([3]; drug 0.01 µM, day 7): < 0 | cell density ([3]; drug 0.1 µM): 0.9 10^4 cells/mL | cell number (absorbance at 450 nm, WST-8) ([3]; drug 0.1 µM, day 3): < 0 | cell number (absorbance at 450 nm, WST-8) ([3]; drug 0.1 µM, day 5): < 0 | cell number (absorbance at 450 nm, WST-8) ([3]; drug 0.1 µM, day 7): < 0 | cell density ([3]; drug 1 µM): 0.2 10^4 cells/mL | cell number (absorbance at 450 nm, WST-8) ([3]; drug 1 µM, day 3): < 0 | cell number (absorbance at 450 nm, WST-8) ([3]; drug 1 µM, day 5): < 0 | cell number (absorbance at 450 nm, WST-8) ([3]; drug 1 µM, day 7): < 0 | % Control value of the RLU value (ATP measurement) [4, 7]: 107 % Control | % Control value of the absorbance at 450 nm (WST-8 measurement) [4, 7]: 125 % Control | % Control value of the RLU value (ATP measurement) [4, 8]: 95 % Control | % Control value of the absorbance at 450 nm (WST-8 measurement) [4, 8]: 99 % Control | % Control value of the RLU value (ATP measurement) [4, 9]: 34 % Control | % Control value of the absorbance at 450 nm (WST-8 measurement) [4, 9]: 33 % Control | % Control value of the RLU value (ATP measurement) [4, 10]: 36 % Control | % Control value of the absorbance at 450 nm (WST-8 measurement) [4, 10]: 32 % Control | % Control value of the RLU value (ATP measurement) [4, 11]: 18 % Control | % Control value of the absorbance at 450 nm (WST-8 measurement) [4, 11]: 5 % Control | % Control value of the RLU value (ATP measurement) [4, 12]: 10 % Control | % Control value of the absorbance at 450 nm (WST-8 measurement) [4, 12]: 10 % Control | % Control value of the RLU value (ATP measurement) [4, 13]: 17 % Control | % Control value of the absorbance at 450 nm (WST-8 measurement) [4, 13]: 3 % Control | % Control value of the RLU value (ATP measurement) [4, 14]: 4 % Control | % Control value of the absorbance at 450 nm (WST-8 measurement) [4, 14]: 5 % Control | % Control value of the RLU value (ATP measurement) [5, 7]: 104 % Control | % Control value of the RLU value (ATP measurement) [5, 8]: 89 % Control | % Control value of the RLU value (ATP measurement) [5, 9]: 46 % Control | % Control value of the RLU value (ATP measurement) [5, 10]: 15 % Control | % Control value of the RLU value (ATP measurement) [5, 11]: 5 % Control | % Control value of the RLU value (ATP measurement) [5, 12]: 2 % Control | % Control value of the RLU value (ATP measurement) [6, 7]: 93 % Control | % Control value of the RLU value (ATP measurement) [6, 8]: 81 % Control | % Control value of the RLU value (ATP measurement) [6, 9]: 52 % Control | % Control value of the RLU value (ATP measurement) [6, 10]: 31 % Control | % Control value of the RLU value (ATP measurement) [6, 11]: 32 % Control | % Control value of the RLU value (ATP measurement) [6, 12]: 16 % Control
